Assays:
[1] = biological target: T1, α1G subunit of a calcium channel (Homo sapiens, UniProt O43497); assay: Whole cell current recording, Xenopus oocytes transfected with α1G subunit; assay type: cell-based
T1 construct: expressed in transfected cells
Method: The procedure of Example 9 was repeated except the cells were transfected with 2 μg of α1G subunit prepared in accordance with the procedure described in Cribbs, et al., FEBS Letters, 66, 54-58 (2000). Here the cells were depolarized using the depolarizing medium of Example 9. When the current reached the maximum level, then 10 μm pH 1177 was added to the medium and the change in current was observed. The current was measured at about zero pA. When the current remained constant, the TH-1177 was washed out, in accordance with the procedure in Example 9 and the change in the current value was again recorded.

[2] = test system: MCF-7 (breast cancer cell); assay: Measurement of cellular proliferation, MCF-7 cells; assay type: cell-based; details: MCF-7, 48 hours
Method: Measurement of cellular proliferation: LNCaP cells at 2.5×10^4/well or PC3 cells at 5×10^4/well, both in a final volume of 100 μl, were plated in triplicate in standard flat bottom 96 well tissue culture plates in the presence of drug or vehicle (DMSO). Unless otherwise indicated, cells were grown for 48 hours at 37° C. in a CO2 incubator. Relative cell growth was determined with the CellTiter 96 aqueous cell proliferation assay (Promega, Madison, Wis.) as described by the manufacturer using an automated plate reader. Results were calculated in a blinded fashion and are means of triplicate determinations.
For the 48 hour proliferation, cells were cultured with calcium channel antagonists or without calcium channel antagonists. The IC50 values of the calcium channel antagonists were determined.
Using the measurement cell proliferation assay described hereinabove, the cell lines Jurkat, LNCap (prostate cancer cell), PC-31 (prostate cancer cell), DU145 (prostate cancer cell), MDA-468 (breast cancer cell), MDA-36 (Breast cancer cell), MCF-7 (breast cancer cell), MIA PaCa-2 (pancreatic cancer cell), Hep G2 (liver cancer cell), A549 (non-small cell lung cancer cells), NCI H460 (non-small cell lung cancer cells), HT-29 (colon cancer cell), HCT-116 (colon cancer cell) and SK OV-3 (ovarian cancer cell) were cultured in the presence of TH-1177, TH-1205, TH-1201, TH-2109, TH-2029, TH-2043, TN-2085 and TH-2279.

[3] = test system: Ca2+ entry in LNCaP cells; assay: Measurement of intracellular Ca2+ concentration (Ca2+ entry), LNCaP cells; assay type: cell-based, human
Method: Cells were incubated in growth media containing 1 μM of the acetoxy-methyl ester of the Ca^2+-sensitive fluorescent dye indo-1 (indo-1/AM, Molecular Probes, Eugene, Oreg.) for 1 hour at 37° C. Cells were washed three times in buffer A (10 mM HEPES, pH 7.4, 1 mM MgCl2, 3 mM KCl, 1 mM CaCl2, 140 mM NaCl, 0.1% glucose, 1% fetal bovine serum) and suspended to a final concentration of 10^6/ml. Prior to stimulation, cells were warmed to 37° C. Prior to stimulation, cells were also incubated with drug, calcium channel antagonists and the IC50 values were determined. Changes in [Ca^2+] were monitored in an SLM 8100C spectrofluorometer (SLM/Aminco, Urbana, Ill.) using previously published methods, Haverstick, et al. (1998) Cell Calcium, 23: 361-368; Densmore, et al. (1996) Am. J. Physiol., 271:C1494-1503, incorporated herein by reference.
Calcium influx into the cell is suitably stimulated using either (1) a physiological ligand or (2) an endoplasmic reticulum (ER) ATPase inhibitor. Preferably, a physiological ligand is used to stimulate calcium influx into the cell.
Endoplasmic Reticulum (ER) ATPase inhibitor, as used herein, is any compound which stimulates the release of calcium from the endoplasmic reticulum into the cytoplasm, which, in turn, activates calmodulin, which, in turn, activates calcium entry into the cell (for review of ER ATPase inhibitors, see Thastrup, O, Agents and Actions (1990), 29:8-15; Inesi and Sagara, Archives of Biochem. and Biophys., 298:313-7 and Darby, et al., Biological Signals (1993), 2:293-304). Preferred ER ATPase inhibitors include cyclopiazonic acid (available from Sigma, St. Louis, Mo.) and thapsigargin (available from Sigma).
TH-1177 blocked capacitative Ca^2+ entry in human prostate cancer cells. In electrically non-excitable cells, Ca^2+ influx is triggered by release of Ca^2+ from its internal storage depot by a phenomenon that has been called “capacitative”Ca^2+ entry (Putney, J. W., Jr. (1986) Cell Calcium, 7:1-12; Haverstick, et al. (1993) Mol. Biol. Cell, 4: 173-184; Kohn, et al. Proc. Natl. Acad. Sci. USA, 92: 1307-1311, incorporated herein by reference). Capacitative entry can be initiated by treatment of cells with thapsigargin. Thapsigargin inhibits the Ca^2+-ATPase of the endoplasmic reticulum allowing uncompensated leak of Ca^2+ from this compartment into the cytosol thereby causing Ca^2+ entry in the absence of engagement of a specific receptor. (Thastrup, et al. (1990) Proc. Natl. Acad. Sci. USA, 87: 2466-2470; Takemura, et al. (1989) J. Biol. Chem. 264: 12266-12271, incorporated herein by reference).
The P2 purinergic receptor is linked to activation of the Ca^2+ entry pathway in many types of cells including prostate cancer cells (Fang, et al. (1992) J. Clin. Invest. 89: 191-196). […]

T1 sequence (O43497 1-2171 isoform O43497-5): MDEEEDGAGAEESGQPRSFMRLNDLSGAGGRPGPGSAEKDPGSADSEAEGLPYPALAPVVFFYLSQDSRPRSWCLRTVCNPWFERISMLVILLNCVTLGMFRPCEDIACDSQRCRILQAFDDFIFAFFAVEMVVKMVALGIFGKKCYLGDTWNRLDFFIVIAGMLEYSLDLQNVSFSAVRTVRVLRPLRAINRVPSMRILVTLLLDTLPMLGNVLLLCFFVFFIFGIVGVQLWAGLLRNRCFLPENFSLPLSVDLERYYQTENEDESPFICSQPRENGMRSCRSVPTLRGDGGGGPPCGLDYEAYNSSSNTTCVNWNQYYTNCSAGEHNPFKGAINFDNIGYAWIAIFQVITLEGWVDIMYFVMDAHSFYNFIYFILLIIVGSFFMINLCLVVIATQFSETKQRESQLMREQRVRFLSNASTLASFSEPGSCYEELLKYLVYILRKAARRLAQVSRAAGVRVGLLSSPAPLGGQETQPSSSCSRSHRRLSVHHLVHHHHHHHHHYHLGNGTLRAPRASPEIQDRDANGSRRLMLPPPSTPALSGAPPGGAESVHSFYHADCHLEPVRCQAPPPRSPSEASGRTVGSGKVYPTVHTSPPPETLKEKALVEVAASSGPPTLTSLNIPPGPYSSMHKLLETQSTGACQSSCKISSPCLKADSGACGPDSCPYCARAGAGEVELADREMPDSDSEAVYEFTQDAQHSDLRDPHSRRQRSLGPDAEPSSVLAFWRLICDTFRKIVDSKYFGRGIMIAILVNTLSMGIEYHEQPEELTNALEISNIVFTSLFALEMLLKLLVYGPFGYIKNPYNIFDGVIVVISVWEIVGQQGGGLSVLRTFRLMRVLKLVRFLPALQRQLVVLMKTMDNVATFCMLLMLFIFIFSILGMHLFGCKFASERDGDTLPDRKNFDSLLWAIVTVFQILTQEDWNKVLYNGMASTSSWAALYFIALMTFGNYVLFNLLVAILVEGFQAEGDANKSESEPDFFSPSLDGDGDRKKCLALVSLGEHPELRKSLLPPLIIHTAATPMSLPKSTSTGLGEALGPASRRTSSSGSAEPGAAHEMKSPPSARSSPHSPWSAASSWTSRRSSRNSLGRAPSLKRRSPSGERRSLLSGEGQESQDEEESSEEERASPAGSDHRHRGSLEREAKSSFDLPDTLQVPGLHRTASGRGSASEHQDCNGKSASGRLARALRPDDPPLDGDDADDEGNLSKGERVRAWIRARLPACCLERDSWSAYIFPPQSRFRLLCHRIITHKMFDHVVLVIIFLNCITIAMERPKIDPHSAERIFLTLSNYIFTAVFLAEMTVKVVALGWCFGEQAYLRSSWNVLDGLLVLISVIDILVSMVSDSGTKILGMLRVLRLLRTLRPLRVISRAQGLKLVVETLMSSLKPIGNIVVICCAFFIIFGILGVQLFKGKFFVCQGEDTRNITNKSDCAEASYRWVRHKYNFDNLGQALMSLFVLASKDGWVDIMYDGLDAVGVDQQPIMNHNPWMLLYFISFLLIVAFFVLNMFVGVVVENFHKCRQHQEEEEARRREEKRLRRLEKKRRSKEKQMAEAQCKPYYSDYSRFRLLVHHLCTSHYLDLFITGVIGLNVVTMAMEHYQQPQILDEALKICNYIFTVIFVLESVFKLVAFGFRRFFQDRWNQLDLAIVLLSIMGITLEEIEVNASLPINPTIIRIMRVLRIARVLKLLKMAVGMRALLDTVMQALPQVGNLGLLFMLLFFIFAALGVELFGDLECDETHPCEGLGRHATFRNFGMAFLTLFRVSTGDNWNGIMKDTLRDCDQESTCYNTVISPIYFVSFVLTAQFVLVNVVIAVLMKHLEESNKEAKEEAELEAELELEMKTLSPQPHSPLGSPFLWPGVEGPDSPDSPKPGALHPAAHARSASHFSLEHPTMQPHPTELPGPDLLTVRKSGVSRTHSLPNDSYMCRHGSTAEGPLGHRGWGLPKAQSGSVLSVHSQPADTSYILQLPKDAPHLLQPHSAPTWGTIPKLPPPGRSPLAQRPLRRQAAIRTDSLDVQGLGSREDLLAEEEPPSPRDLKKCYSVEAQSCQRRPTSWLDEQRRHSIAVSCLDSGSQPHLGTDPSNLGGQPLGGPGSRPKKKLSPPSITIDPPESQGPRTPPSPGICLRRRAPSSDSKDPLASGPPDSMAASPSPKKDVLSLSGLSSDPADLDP

## COc1ccc(CCN2CCC[C@H]2COC(c2ccccc2)c2ccc(Cl)cc2)cc1 (stereo partly shown) [TH-1177]
[1]; 10 μm added at maximum current
  Current in depolarized α1G-transfected cells: about zero
[1]; α1G-transfected Xenopus oocytes, restored on washout
  Ability of calcium to cross the cell membrane: completely inhibits
[2]
  IC50: 21 µM
[3]; EGTA chelation of extracellular Ca2+ considered 100% inhibition, read-out: IC50 for blocking Ca2+ entry, LNCaP cells
  IC50: 3000 nM
[3]; LNCaP, 300 nM thapsigargin, drug added before stimulus
  Effect on increase in [Ca2+]i stimulated by thapsigargin: dose dependent inhibition
[3]; LNCaP, 1 mM ATP, 10 μM TH-1177 added prior
  Effect on rise in [Ca2+]i stimulated by ATP: inhibited
[3]; LNCaP, EGTA in medium, 1 mM ATP
  Effect on release of Ca2+ from the internal storage pool: no effect

Reference: patent US6946475B1, “Anticancer calcium channel blockers” (University of Virginia Patent Foundation, priority 1999, dated 2005)
